Laboratory results: ChEMBL document CHEMBL1149126, “3-phenyl-6-(2-pyridyl)methyloxy-1,2,4-triazolo[3,4-a]phthalazines and analogues: high-affinity gamma-aminobutyric acid-A benzodiazepine receptor ligands with alpha 2, alpha 3, and alpha 5-subtype binding selectivity over alpha 1” (J Med Chem, 2004)
pKi: −log10 of the molar value.

molecular target: GABA-A receptor; alpha-3/beta-3/gamma-2 (Homo sapiens) (UniProt P18507+P28472+P34903); test: Maximum percent change compared to GABA EC20 against GABA-A alpha-3-beta-3-gamma-2 receptor; type: functional

| Efficacy | SMILES |
| --- | --- |
| -31% | C=Cc1nnc2c3ccccc3c(OCc3ccccn3)nn12 |

molecular target: T1, GABA-A receptor; alpha-3/beta-3/gamma-2 (Homo sapiens, UniProt P18507+P28472+P34903); test: Binding affinity for human GABA-A receptor alpha-3-beta-3-gamma-2 subunits in L(tk-) cells; type: cell-based
T1 sequence (P18507 whole entry): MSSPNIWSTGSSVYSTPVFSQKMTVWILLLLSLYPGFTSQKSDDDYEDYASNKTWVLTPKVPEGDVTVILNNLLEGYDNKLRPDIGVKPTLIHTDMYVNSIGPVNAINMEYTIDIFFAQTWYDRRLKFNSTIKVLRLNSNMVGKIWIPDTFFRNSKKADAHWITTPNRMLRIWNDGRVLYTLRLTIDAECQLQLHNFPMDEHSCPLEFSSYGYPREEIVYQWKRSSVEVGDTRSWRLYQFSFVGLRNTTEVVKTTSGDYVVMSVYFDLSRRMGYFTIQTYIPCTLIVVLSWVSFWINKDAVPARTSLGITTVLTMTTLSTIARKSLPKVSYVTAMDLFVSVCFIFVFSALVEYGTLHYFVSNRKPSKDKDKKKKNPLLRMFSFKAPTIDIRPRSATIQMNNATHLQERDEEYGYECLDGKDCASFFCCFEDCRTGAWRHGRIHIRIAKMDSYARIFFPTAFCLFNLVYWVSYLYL
T1 sequence (P28472 whole entry): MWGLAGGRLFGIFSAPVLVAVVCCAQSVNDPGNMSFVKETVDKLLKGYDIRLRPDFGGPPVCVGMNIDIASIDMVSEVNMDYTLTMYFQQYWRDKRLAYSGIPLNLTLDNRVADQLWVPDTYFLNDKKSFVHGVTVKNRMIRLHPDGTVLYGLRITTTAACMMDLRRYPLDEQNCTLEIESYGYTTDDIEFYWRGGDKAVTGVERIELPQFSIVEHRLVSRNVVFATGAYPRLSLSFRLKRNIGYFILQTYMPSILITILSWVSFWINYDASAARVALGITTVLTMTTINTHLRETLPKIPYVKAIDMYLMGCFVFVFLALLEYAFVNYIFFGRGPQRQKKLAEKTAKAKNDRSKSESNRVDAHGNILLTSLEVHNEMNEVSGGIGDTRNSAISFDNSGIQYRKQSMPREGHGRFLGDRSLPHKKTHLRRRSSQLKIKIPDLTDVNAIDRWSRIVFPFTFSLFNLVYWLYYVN
T1 sequence (P34903 whole entry): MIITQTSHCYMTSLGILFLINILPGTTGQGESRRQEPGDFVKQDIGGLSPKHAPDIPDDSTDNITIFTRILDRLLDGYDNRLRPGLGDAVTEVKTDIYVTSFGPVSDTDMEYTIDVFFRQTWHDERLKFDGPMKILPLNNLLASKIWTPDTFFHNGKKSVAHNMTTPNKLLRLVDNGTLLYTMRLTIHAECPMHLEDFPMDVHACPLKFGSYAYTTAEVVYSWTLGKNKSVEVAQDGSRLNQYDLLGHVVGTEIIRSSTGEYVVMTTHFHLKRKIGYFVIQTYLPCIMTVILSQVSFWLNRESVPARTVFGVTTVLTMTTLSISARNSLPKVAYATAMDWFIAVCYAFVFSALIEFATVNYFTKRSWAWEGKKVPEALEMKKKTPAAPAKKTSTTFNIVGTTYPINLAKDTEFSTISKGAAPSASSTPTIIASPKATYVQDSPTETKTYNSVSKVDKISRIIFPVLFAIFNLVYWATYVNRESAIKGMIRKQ

| SMILES | pKi |
| --- | --- |
| C=Cc1nnc2c3ccccc3c(OCc3ccccn3)nn12 | 7.96 |
| c1ccc(-c2nnc3c4ccccc4c(OCc4ccoc4)nn23)cc1 | 7.68 |
| COc1nn2c(-c3ccccc3)nnc2c2ccccc12 | 6.92 |
| c1ccc(-c2nnc3c4ccccc4c(OCC4CCNCC4)nn23)cc1 | 7.43 |
| c1ccc(CCOc2nn3c(-c4ccccc4)nnc3c3ccccc23)cc1 | 6.14 |
| Cc1ccc2c(OCc3ccccn3)nn3c(-c4ccccc4)nnc3c2c1 | < 6.00 |

Now from value to molecule:

| pKi | SMILES |
| --- | --- |
| < 6.00 | Clc1cccc(COc2nn3c(-c4ccccc4)nnc3c3ccccc23)c1 |
| < 6.00 | CN(Cc1ccccc1)c1nn2c(-c3ccccc3)nnc2c2ccccc12 |
| 6.74 | c1ccc(-c2nnc3c4ccccc4c(OCc4ccco4)nn23)cc1 |
| 6.77 | N#Cc1cccc(COc2nn3c(-c4ccccc4)nnc3c3ccccc23)c1 |
| 6.60 | Clc1ccc(COc2nn3c(-c4ccccc4)nnc3c3ccccc23)cc1 |

molecular target: T2, GABA-A receptor; alpha-5/beta-3/gamma-2 (Homo sapiens, UniProt P18507+P28472+P31644); test: Binding affinity for human GABA-A receptor alpha-5-beta-3-gamma-2 subunits in L(tk-) cells; type: cell-based
T2 sequence (P18507 whole entry): T1 sequence (P18507 whole entry)
T2 sequence (P28472 whole entry): T1 sequence (P28472 whole entry)
T2 sequence (P31644 whole entry): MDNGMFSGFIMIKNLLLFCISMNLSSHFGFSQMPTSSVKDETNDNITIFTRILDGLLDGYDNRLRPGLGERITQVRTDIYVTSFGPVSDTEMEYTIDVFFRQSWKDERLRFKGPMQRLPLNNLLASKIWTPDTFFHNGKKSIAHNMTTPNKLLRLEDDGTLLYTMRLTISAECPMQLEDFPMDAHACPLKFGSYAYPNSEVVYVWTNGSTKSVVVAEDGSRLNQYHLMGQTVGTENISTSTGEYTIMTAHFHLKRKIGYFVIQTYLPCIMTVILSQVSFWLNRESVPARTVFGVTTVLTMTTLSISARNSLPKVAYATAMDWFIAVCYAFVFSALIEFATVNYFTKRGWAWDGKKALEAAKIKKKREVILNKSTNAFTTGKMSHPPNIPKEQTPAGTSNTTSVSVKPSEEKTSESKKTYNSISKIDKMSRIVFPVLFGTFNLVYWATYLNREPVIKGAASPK

| SMILES | pKi |
| --- | --- |
| C=Cc1nnc2c3ccccc3c(OCc3ccccn3)nn12 | 8.49 |
| c1ccc(-c2nnc3c4ccccc4c(OCc4ccoc4)nn23)cc1 | 7.89 |
| COc1nn2c(-c3ccccc3)nnc2c2ccccc12 | 7.41 |
| c1ccc(-c2nnc3c4ccccc4c(OCC4CCNCC4)nn23)cc1 | 7.52 |
| c1ccc(CCOc2nn3c(-c4ccccc4)nnc3c3ccccc23)cc1 | < 6.00 |
| Cc1ccc2c(OCc3ccccn3)nn3c(-c4ccccc4)nnc3c2c1 | < 6.00 |

Now from value to molecule:

| pKi | SMILES |
| --- | --- |
| < 6.00 | Clc1cccc(COc2nn3c(-c4ccccc4)nnc3c3ccccc23)c1 |
| 6.62 | CN(Cc1ccccc1)c1nn2c(-c3ccccc3)nnc2c2ccccc12 |
| 7.13 | c1ccc(-c2nnc3c4ccccc4c(OCc4ccco4)nn23)cc1 |
| 6.89 | N#Cc1cccc(COc2nn3c(-c4ccccc4)nnc3c3ccccc23)c1 |
| 6.77 | Clc1ccc(COc2nn3c(-c4ccccc4)nnc3c3ccccc23)cc1 |

molecular target: T3, GABA-A receptor; alpha-2/beta-3/gamma-2 (Homo sapiens, UniProt P18507+P28472+P47869); test: Binding affinity for human GABA-A receptor alpha-2-beta-3-gamma-2 subunits in L(tk-) cells; type: cell-based
T3 sequence (P18507 whole entry): T1 sequence (P18507 whole entry)
T3 sequence (P28472 whole entry): T1 sequence (P28472 whole entry)
T3 sequence (P47869 whole entry): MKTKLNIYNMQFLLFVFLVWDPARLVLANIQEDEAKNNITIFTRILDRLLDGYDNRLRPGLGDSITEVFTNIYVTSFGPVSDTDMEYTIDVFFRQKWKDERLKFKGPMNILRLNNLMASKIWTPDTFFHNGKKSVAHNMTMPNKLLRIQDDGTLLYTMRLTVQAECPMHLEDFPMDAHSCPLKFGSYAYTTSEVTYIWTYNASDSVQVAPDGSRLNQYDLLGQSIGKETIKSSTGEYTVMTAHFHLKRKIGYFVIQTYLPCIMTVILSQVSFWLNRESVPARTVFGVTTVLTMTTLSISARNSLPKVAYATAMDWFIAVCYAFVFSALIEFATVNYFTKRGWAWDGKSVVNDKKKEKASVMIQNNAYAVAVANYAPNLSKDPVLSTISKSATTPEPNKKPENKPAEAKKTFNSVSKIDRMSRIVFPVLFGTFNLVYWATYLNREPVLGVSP

| SMILES | pKi |
| --- | --- |
| C=Cc1nnc2c3ccccc3c(OCc3ccccn3)nn12 | 7.55 |
| c1ccc(-c2nnc3c4ccccc4c(OCc4ccoc4)nn23)cc1 | 7.42 |
| COc1nn2c(-c3ccccc3)nnc2c2ccccc12 | 6.80 |
| c1ccc(-c2nnc3c4ccccc4c(OCC4CCNCC4)nn23)cc1 | 7.40 |
| c1ccc(CCOc2nn3c(-c4ccccc4)nnc3c3ccccc23)cc1 | < 6.00 |
| Cc1ccc2c(OCc3ccccn3)nn3c(-c4ccccc4)nnc3c2c1 | < 6.00 |

More lines, now with the values ahead:

| pKi | SMILES |
| --- | --- |
| < 6.00 | Clc1cccc(COc2nn3c(-c4ccccc4)nnc3c3ccccc23)c1 |
| < 6.00 | CN(Cc1ccccc1)c1nn2c(-c3ccccc3)nnc2c2ccccc12 |
| 6.57 | c1ccc(-c2nnc3c4ccccc4c(OCc4ccco4)nn23)cc1 |
| 6.40 | N#Cc1cccc(COc2nn3c(-c4ccccc4)nnc3c3ccccc23)c1 |
| 6.42 | Clc1ccc(COc2nn3c(-c4ccccc4)nnc3c3ccccc23)cc1 |

molecular target: T4, GABA-A receptor; alpha-1/beta-3/gamma-2 (Homo sapiens, UniProt P14867+P18507+P28472); test: Binding affinity for human GABA-A receptor alpha-1-beta-3-gamma-2 subunits in L(tk-) cells
T4 sequence (P14867 whole entry): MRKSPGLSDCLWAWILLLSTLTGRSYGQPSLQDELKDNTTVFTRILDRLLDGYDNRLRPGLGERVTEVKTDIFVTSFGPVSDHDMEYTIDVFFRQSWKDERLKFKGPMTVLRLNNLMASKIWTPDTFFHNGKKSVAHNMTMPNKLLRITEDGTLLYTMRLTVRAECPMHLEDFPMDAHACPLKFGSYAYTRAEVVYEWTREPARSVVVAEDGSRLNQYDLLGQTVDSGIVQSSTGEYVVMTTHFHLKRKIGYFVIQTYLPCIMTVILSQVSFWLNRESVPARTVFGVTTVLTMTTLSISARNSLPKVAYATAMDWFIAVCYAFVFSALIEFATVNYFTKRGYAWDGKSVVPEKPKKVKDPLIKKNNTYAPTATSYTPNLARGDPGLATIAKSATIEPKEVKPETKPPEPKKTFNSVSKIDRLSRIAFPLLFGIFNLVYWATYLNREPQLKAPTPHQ
T4 sequence (P18507 whole entry): T1 sequence (P18507 whole entry)
T4 sequence (P28472 whole entry): T1 sequence (P28472 whole entry)

| SMILES | pKi |
| --- | --- |
| C=Cc1nnc2c3ccccc3c(OCc3ccccn3)nn12 | 7.31 |
| c1ccc(-c2nnc3c4ccccc4c(OCc4ccoc4)nn23)cc1 | 7.59 |
| COc1nn2c(-c3ccccc3)nnc2c2ccccc12 | 6.85 |
| c1ccc(-c2nnc3c4ccccc4c(OCC4CCNCC4)nn23)cc1 | 7.49 |
| c1ccc(CCOc2nn3c(-c4ccccc4)nnc3c3ccccc23)cc1 | 6.42 |
| Cc1ccc2c(OCc3ccccn3)nn3c(-c4ccccc4)nnc3c2c1 | < 6.00 |

The remaining lines, values ahead:

| pKi | SMILES |
| --- | --- |
| < 6.00 | Clc1cccc(COc2nn3c(-c4ccccc4)nnc3c3ccccc23)c1 |
| 6.30 | CN(Cc1ccccc1)c1nn2c(-c3ccccc3)nnc2c2ccccc12 |
| 6.60 | c1ccc(-c2nnc3c4ccccc4c(OCc4ccco4)nn23)cc1 |
| 6.14 | N#Cc1cccc(COc2nn3c(-c4ccccc4)nnc3c3ccccc23)c1 |
| 6.32 | Clc1ccc(COc2nn3c(-c4ccccc4)nnc3c3ccccc23)cc1 |
